Data from publication PMC6976569, “Structural basis of subtype-selective competitive antagonism for GluN2C/2D-containing NMDA receptors” (Nature Communications, 2020).
“And” between values parts separate entries of the source, which are not always exact repeats. Identical values can stand only once.

Experiments:
Format in all cases: cell-based
[1] = biological target: T1, GluN1-4a/GluN2A-4m NMDAR (Ala414Arg, Lys738Met, Gly740Arg, Arg741Lys) (Rattus norvegicus, UniProt P35439+Q00959, A414R/G740R/K738M/R741K); experiment: TEVC electrophysiology on oocytes expressing GluN1-4a/GluN2A-4m mutant
T1 construct: we incorporated the mutations, Ala414Arg, Lys738Met, Gly740Arg, and Arg741Lys, in the full-length GluN2A (GluN2A-4m); expressed in transfected cells; host or cells: Xenopus laevis oocytes injected with cRNA
T1 sequence (Q00959 23-1464 A414R/K738M/G740R/R741K, other chains not shown): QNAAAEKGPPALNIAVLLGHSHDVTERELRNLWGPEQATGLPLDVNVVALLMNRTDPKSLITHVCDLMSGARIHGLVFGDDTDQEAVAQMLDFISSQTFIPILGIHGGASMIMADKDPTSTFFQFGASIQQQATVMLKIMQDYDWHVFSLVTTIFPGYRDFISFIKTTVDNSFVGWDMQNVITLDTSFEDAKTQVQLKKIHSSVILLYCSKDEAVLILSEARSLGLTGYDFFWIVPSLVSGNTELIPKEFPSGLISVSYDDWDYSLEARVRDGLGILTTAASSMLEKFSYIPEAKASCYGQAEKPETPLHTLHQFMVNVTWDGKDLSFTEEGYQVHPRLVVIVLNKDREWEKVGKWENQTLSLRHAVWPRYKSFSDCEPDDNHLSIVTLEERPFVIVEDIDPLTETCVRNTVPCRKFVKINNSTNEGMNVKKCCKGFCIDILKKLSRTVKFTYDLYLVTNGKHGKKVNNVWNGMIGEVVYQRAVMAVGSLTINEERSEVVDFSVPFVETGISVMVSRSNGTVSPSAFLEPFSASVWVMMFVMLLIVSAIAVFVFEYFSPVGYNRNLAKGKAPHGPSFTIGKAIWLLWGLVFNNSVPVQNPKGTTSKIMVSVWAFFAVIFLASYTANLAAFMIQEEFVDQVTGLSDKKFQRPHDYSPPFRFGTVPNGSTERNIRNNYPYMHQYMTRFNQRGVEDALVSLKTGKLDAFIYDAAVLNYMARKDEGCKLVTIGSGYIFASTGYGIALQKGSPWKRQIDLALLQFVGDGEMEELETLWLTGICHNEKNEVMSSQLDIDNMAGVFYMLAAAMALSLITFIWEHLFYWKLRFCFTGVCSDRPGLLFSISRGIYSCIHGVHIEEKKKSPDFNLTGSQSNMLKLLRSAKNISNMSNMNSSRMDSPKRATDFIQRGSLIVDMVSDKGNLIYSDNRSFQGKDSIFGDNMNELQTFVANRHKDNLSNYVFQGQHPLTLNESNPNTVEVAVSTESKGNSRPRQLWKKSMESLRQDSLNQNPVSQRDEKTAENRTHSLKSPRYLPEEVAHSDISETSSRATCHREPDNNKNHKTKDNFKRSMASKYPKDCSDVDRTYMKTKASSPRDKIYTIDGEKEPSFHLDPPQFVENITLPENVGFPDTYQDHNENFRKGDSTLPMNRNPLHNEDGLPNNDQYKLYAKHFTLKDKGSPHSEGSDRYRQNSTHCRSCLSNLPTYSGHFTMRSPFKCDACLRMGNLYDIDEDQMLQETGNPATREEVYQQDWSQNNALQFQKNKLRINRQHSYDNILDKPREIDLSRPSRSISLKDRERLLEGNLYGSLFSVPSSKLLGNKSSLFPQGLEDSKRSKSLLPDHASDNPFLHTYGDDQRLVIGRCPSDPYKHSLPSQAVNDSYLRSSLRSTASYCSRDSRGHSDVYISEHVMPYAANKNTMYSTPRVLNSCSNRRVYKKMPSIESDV
Description: (§1) Our previous structure of the GluN1–GluN2A LBD complexed to PPDA unambiguously mapped the antagonist-binding site at the cleft of the bilobe architecture of the GluN2 LBD (PDB: 4NF6). […] In this study, we focus on the comparison between the GluN2A and GluN2D subunits, since sequence and functional similarities between GluN2A and GluN2B and between GluN2C and GluN2D are high. Near the PPDA-binding pocket in the GluN2A LBD (Fig. 3a), the primary sequences across the GluN2A-D subunits are mostly identical except for four residues, GluN2A-Ala414, Lys738, Gly740, and Arg741, which are Arg, Met, Arg, and Lys residues in GluN2D, respectively (Fig. 3a; yellow residues and arrows in the sequence alignment). GluN2A-Ala414 is located in the D1-lobe, whereas GluN2A-Lys738, Gly740, and Arg741 are on Helix H in the D2-lobe proximal to the predicted binding site for the carboxyethyl group of UBP791. These residues are completely conserved among human, rat, and chicken, though GluN2A-Ala414 and -Lys738 are not conserved in X. laevis (frog) and Danio rerio (zebrafish) (Supplementary Fig. 1).
(§2) Plasmids (pSP or pCI_NEO) harboring rat GluN1 or GluN2 full-length subunits were linearized by restriction digestion and transcribed according to the manufacturer’s instructions (mMESSAGE mMachine SP6 or T7 kit, ThermoFisher Scientific). Recombinant rat GluN1-4a and GluN2 were expressed by co-injecting cRNA at a 1:2 (w/w) ratio into defolliculated X. laevis oocytes (amounts varied from 0.05–25 ng per oocyte). Two-electrode voltage-clamp recordings were performed 1–3 days after injection using agarose-tipped microelectrodes (0.4–1.2 MΩ) filled with 3 M KCl at a holding potential of −60 mV. The bath solution contained 5 mM HEPES, 100 mM NaCl, 0.3 mM BaCl2, 10 mM Tricine, at pH 7.4 (adjusted with KOH). […] For the statistical evaluation, we implemented pairwise F-tests to test variances, and then performed the Student t test with equal or unequal variances as determined previously, and accounted for multiple testing with the Bonferroni correction.

[2] = biological target: T2, GluN1-4a/GluN2A-4m NMDAR (Ala414Arg, Lys738Met, Gly740Arg, Arg741Lys) (Rattus norvegicus, UniProt Q00959, A414R/G740R/K738M/R741K); experiment: as above; settings: Ki GluN2A-4m relative to Ki GluN2D (WT)
T2 construct: we incorporated the mutations, Ala414Arg, Lys738Met, Gly740Arg, and Arg741Lys, in the full-length GluN2A (GluN2A-4m); expressed in transfected cells; host or cells: Xenopus laevis oocytes injected with cRNA
T2 sequence (Q00959 23-1464 A414R/K738M/G740R/R741K, other chains not shown): as above
Description: as §1, §2

GluN1-4a/GluN2B NMDARs [3] = biological target: T3, GluN1-4a/GluN2B NMDARs (Rattus norvegicus, UniProt P35439+Q00960); experiment: TEVC electrophysiology on Xenopus laevis oocytes expressing GluN1-4a/GluN2B
T3 construct: expressed in transfected cells; host or cells: Xenopus laevis oocytes injected with cRNA
Description: (§3) The chemical definition of UBP791 used in this study is a cis-racemic mixture of (2S,3R)- and (2R,3S)-isomers.
as §2

GluN1-4a/GluN2B NMDARs [4] = biological target: T4, GluN1-4a/GluN2B NMDARs (Rattus norvegicus, UniProt Q00960); experiment: as above; settings: for fold difference of Ki vs. 2D (GluN2B): Ki GluN2B relative to Ki GluN2D (WT)
T4 construct: expressed in transfected cells; host or cells: Xenopus laevis oocytes injected with cRNA
T4 sequence (Q00960 27-1482, other chains not shown): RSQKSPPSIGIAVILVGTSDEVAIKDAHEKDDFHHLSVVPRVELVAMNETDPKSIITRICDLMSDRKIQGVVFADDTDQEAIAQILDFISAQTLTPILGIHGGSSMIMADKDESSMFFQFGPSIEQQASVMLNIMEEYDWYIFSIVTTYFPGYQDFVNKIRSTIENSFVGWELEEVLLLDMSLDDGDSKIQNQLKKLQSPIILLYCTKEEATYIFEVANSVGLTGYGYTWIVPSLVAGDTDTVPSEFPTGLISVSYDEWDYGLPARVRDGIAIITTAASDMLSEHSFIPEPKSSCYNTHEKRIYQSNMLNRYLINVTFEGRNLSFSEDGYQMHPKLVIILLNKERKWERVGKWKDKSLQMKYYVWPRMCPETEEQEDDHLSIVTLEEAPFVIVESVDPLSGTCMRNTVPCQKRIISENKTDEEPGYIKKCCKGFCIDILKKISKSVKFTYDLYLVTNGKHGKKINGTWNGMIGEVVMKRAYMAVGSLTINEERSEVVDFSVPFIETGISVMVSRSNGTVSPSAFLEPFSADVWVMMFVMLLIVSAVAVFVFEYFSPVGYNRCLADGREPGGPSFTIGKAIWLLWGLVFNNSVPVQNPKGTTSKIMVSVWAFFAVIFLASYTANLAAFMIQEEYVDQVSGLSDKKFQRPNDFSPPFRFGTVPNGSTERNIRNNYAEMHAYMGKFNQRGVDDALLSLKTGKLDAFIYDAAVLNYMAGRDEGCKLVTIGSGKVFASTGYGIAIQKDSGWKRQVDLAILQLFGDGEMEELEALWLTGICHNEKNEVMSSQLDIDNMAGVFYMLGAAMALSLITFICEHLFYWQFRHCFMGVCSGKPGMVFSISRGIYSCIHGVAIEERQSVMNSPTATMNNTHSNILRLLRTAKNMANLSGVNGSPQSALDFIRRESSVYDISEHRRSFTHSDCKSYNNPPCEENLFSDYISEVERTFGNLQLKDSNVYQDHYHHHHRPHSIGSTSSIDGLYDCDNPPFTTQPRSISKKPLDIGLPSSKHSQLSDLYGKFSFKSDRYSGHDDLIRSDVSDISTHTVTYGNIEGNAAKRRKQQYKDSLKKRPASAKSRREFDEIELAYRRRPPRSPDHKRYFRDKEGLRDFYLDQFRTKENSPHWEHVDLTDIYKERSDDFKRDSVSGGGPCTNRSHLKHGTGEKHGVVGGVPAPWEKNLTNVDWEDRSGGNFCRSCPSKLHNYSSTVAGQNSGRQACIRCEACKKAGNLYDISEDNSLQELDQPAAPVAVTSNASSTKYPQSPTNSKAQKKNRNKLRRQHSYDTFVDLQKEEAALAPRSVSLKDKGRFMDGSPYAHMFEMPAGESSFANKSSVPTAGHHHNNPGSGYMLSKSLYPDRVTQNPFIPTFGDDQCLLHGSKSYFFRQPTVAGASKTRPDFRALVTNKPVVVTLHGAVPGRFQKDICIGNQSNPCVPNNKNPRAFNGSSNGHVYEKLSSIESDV
Description: as §3, §2

SMILES | Ki [1] [nM] | fold difference of Ki vs. 2D (GluN2A-4m) [2] | Ki (GluN1-4a/GluN2B NMDARs [3]) [nM] | fold difference of Ki vs. 2D (GluN2B) (GluN1-4a/GluN2B NMDARs [4]) | GluN2C/2D-selectivity over GluN2B (GluN1-4a/GluN2B NMDARs [4]; ratio of Ki values) [fold] | selectivity for GluN2C over GluN2B (GluN1-4a/GluN2B NMDARs [4]; ratio of Ki values) [fold]
O=C(O)CCc1ccc2c(ccc3cc(C(=O)N4CCN[C@@H](C(=O)O)[C@H]4C(=O)O)ccc32)c1 (relative stereo) [UBP791, (2S*,3R*)-1-(7-(2-carboxyethyl)phenanthrene-2-carbonyl)piperazine-2,3-dicarboxylic acid] | 710 ± 140 | ~ 8 fold | 1380 ± 360 | ~ 16 fold | 16 | 
O=C(O)C=Cc1ccc2c(ccc3cc(C(=O)N4CCN[C@@H](C(=O)O)[C@H]4C(=O)O)ccc32)c1 (relative stereo) [UBP1700, (2S*,3R*)-1-(7-(2-carboxyvinyl)phenanthrene-2-carbonyl)piperazine-2,3-dicarboxylic acid] | 50 | ~ 7 fold | 350 ± 50 | ~ 52 fold and 52 fold |  | 40
